# Test results from US20060069132A1, “Azolecarboxamide herbicides” (priority 2004, published 2006).
# Like-named read-outs stand apart in the source and are kept apart here.
# Tests used:
# [1] = system: rice; test: Test C flooded paddy test; format: in vivo, Oryza sativa; conditions: Oryza sativa
# Procedure, shortened: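 Postemergence sprays applied to plants 2 to 18 cm tall (1- to 4-leaf stage); paddy species grown to 2-leaf stage under flooding. After 12 to 14 days in greenhouse, visual rating versus untreated controls on 0–100 scale (0 no effect, 100 complete control).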
# [2] = system: common ragweed; test: Test C pre-/postemergence herbicide test; format: in vivo, Ambrosia elatior
# Procedure, shortened: (§1)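 Visual injury scores run from 0 (no effect) to 100 (complete control), assessed relative to untreated controls 12 to 14 days after treatment in the greenhouse. Chemicals were formulated in a non-phytotoxic solvent mixture with surfactant and applied to soil after planting or to emerged plants at the 1- to 4-leaf stage.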
# [3] = system: velvetleaf; test: Test A pre-/postemergence herbicide test; format: in vivo, Abutilon theophrasti; conditions: Abutilon theophrasti, 240 h; for pest or weed control at 500 g/ha: 500 g ai/ha; for pest or weed control at 2000 g/ha: 2000 g ai/ha
# Procedure, shortened: (§2)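 Pre: seeded sandy loam, directed soil spray, compound in non-phytotoxic solvent + surfactant. Post: 1–2-leaf plants (2–10 cm), sprayed to runoff. Greenhouse ~10 d; visual injury vs untreated, 0–100 scale.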
# [4] = system: rice; test: Test B pre-/postemergence herbicide test; format: in vivo, Oryza sativa; conditions: Preemergence, 500 g ai/ha; scale 0 to 100
# Procedure, shortened: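 Species tested were Echinochloa crus-galli, Ipomoea coccinea, Xanthium strumarium and Oryza sativa, treated both before emergence and at the 1- to 4-leaf stage; rice and barnyardgrass were also tested under flooding at 2 leaves. Greenhouse incubation lasted 13–15 days before visual 0–100 scoring.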
# [5] = system: giant foxtail; test: Test C pre-/postemergence herbicide test; format: in vivo, Setaria faberi
# Procedure, shortened: as §1
# [6] = system: barnyardgrass; test: Test C flooded paddy test; format: in vivo, Echinochloa crus-galli; conditions: Echinochloa crus-galli
# Procedure, shortened: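 Scoring by eye, 12–14 days post-treatment, greenhouse-held plants vs. controls; 0 no effect, 100 complete control. Sprayed at 1–4 leaves (2–18 cm); paddy barnyardgrass at 2 leaves, flooded.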
# [7] = system: common (oilseed) sunflower; test: Test C pre-/postemergence herbicide test; format: in vivo, Helianthus annuus
# Procedure, shortened: as §1
# [8] = system: morningglory; test: Test A pre-/postemergence herbicide test; format: in vivo, Ipomoea spp.; conditions: Ipomoea, 240 h; for pest or weed control at 500 g/ha: 500 g ai/ha; for pest or weed control at 2000 g/ha: 2000 g ai/ha
# Procedure, shortened: as §2
# [9] = system: eastern black nightshade; test: Test C pre-/postemergence herbicide test; format: in vivo, Solanum ptycanthum
# Procedure, shortened: as §1
# [10] = Preemergence, 500 g ai/ha, scale 0 to 100, 0 no effect, 100 complete control
# [11] = post-emergence, Postemergence, 0 to 100 scale, 0 no effect, 100 complete control, read-out: Plant response rating, Velvetleaf
# [12] = post-emergence, Postemergence, 0 to 100 scale, 0 no effect, 100 complete control, read-out: Plant response rating, Morningglory
smiles,measurement,setting,value
"CCn1nc(C(C)(C)C)cc1C(=O)Nc1cc(C(=O)N(C)C)ccc1F [Compound 6, N-[5-[(dimethylamino)carbonyl]-2-fluorophenyl]-3-(1,1-dimethylethyl)-1-ethyl-1H-pyrazole-5-carboxamide]",plant injury at 62 g/ha,"[1]; 62 g ai/ha, scale 0 to 100 (0 no effect, 100 complete control), read-out: Rice plant response rating",40%
same,plant injury at 125 g/ha,"[1]; 125 g ai/ha, scale of 0 to 100, 0 is no effect, 100 is complete control, read-out: Rice plant response rating",80%
same,plant injury at 250 g/ha,"[1]; 250 g ai/ha, visual rating after 12 to 14 days, scale 0 to 100 (0 no effect, 100 complete control), read-out: Plant response rating, Rice",80%
same,plant injury at 500 g/ha,"[1]; 500 g ai/ha, visual rating after 12 to 14 days, scale 0 to 100 (0 no effect, 100 complete control), read-out: Plant response rating, Rice",90%
same,"Plant response rating (0 = no effect, 100 = complete control), Ragweed","[2]; 62 g ai/ha, preemergence",100
same,pest or weed control at 250 g/ha,"[2]; Ambrosia artemisiifolia, pre-emergence, 250 g ai/ha, scale 0 to 100 (0 no effect, 100 complete control), visual, 12 to 14 days, read-out: Plant response rating, Ragweed",100%
same,Ragweed plant response rating,[2]; [10],100
same,pest or weed control at 500 g/ha,[3]; [11],90%
same,pest or weed control at 2000 g/ha,[3]; [11],95%
same,pest or weed control at 500 g/ha,"[3]; pre-emergence, Preemergence, visual rating, 0 to 100 scale (0 no effect, 100 complete control), read-out: Velvetleaf plant response rating",100%
same,pest or weed control at 2000 g/ha,"[3]; pre-emergence, Preemergence, 0 to 100 scale, 0 no effect, 100 complete control, read-out: Velvetleaf plant response rating",100%
same,Rice plant response rating,[4],100
same,"Plant response rating (0 = no effect, 100 = complete control), Foxtail, Giant","[5]; 62 g ai/ha, preemergence",60
same,"Foxtail, Giant plant response rating",[5]; [10],100
same,pest or weed control at 125 g/ha,"[5]; Setaria faberi, pre-emergence, 312 h, 125 g ai/ha, scale 0-100, read-out: Plant response rating, Foxtail, Giant",80%
same,pest or weed control at 250 g/ha,"[5]; Setaria faberi, pre-emergence, 312 h, 250 g ai/ha, scale 0 to 100 (0 no effect, 100 complete control), visual, 12 to 14 days, read-out: Plant response rating, Foxtail, Giant",85%
same,pest or weed control at 62 g/ha,"[6]; 62 g ai/ha, scale 0 to 100 (0 no effect, 100 complete control), read-out: Barnyardgrass plant response rating",60%
same,pest or weed control at 125 g/ha,"[6]; 125 g ai/ha, scale of 0 to 100, 0 is no effect, 100 is complete control, read-out: Barnyardgrass plant response rating",90%
same,pest or weed control at 250 g/ha,"[6]; 250 g ai/ha, visual rating after 12 to 14 days, scale 0 to 100 (0 no effect, 100 complete control), read-out: Plant response rating, Barnyardgrass",90%
same,pest or weed control at 500 g/ha,"[6]; 500 g ai/ha, visual rating after 12 to 14 days, scale 0 to 100 (0 no effect, 100 complete control), read-out: Plant response rating, Barnyardgrass",90%
same,"Plant response rating (0 = no effect, 100 = complete control), Sunflower","[7]; 62 g ai/ha, preemergence",0
same,pest or weed control at 250 g/ha,"[7]; Helianthus annuus, pre-emergence, 250 g ai/ha, scale 0 to 100 (0 no effect, 100 complete control), visual, 12 to 14 days, read-out: Plant response rating, Sunflower",100%
same,Sunflower plant response rating,[7]; [10],100
same,pest or weed control at 500 g/ha,[8]; [12],10%
same,pest or weed control at 2000 g/ha,[8]; [12],30%
same,pest or weed control at 500 g/ha,"[8]; pre-emergence, Preemergence, visual rating, 0 to 100 scale (0 no effect, 100 complete control), read-out: Morningglory plant response rating",45%
same,pest or weed control at 2000 g/ha,"[8]; pre-emergence, Preemergence, 0 to 100 scale, 0 no effect, 100 complete control, read-out: Morningglory plant response rating",80%
same,"Plant response rating (0 = no effect, 100 = complete control), Nightshade","[9]; 62 g ai/ha, preemergence",100
same,Nightshade plant response rating,[9]; [10],100
same,pest or weed control at 250 g/ha,"[9]; pre-emergence, 250 g ai/ha, scale 0 to 100 (0 no effect, 100 complete control), visual, 12 to 14 days, read-out: Plant response rating, Nightshade",100%
